This is an account of results in US10144732B2 (BIOGEN MA INC., priority 2014, dated 2018).

pIC50: −log10 of the molar value. Where “and” joins values, the source holds several entries; their conditions need not be identical. Equal entries are not always repeated. Structures can show the parent of a compound that is named as a salt.

One assay concerns the target T1, Human ATX protein (Homo sapiens, UniProt Q13822).
T1 construct: made in house
Put plainly: ATX biochemical assay (FRET, FS-3 substrate). As to conditions: FRET assay, FS-3 2 μM, ATX 1.0 μg/mL, 30 minutes preincubation, 2 hours reaction at room temperature; read-out: IC50. From the text: ATX (Autotaxin) is a 125 KDa glycoprotein with lysophospholipase D (LPLD) activity that generates the bioactive lipid lysophosphatidic acid (LPA) from lysophosphatidylcholine (LPC). The ATX biochemical assay utilizes a FRET (fluorescence resonance energy transfer) technology platform. The fluorescence signal of FRET substrate FS-3 is quenched due to intra-molecular FRET of a fluorophore to a non-fluorescing quencher (Ferguson, C. G., et al., Org Lett. 2006 May 11; 8(10): 2023-2026, which is incorporated by reference in its entirety). ATX catalyzes the hydrolysis of the substrate which separates the dabsyl quencher from the fluorescein reporter, which becomes fluorescent. The reaction is monitored by a SpectraMax M5 (Molecular Devices, Sunnyvale, Calif.) with at excitation wavelength 485 nm and emission wavelength […].
Fatty acid free-BSA (Sigma A8806): 10 mg/mL in H2O, stored at 4° C.
2×ATX assay buffer: 100 mM Tris, 280 mM NaCl, 10 mM KCl, 2 mM CaCl2, 2 mM MgCl2, pH 7.4.
Human ATX protein: expressed and purified in house. Stored at −80° C.
Substrate FS-3 (Echelon, L-2000): 100 μg in 77.74 μL H2O (1 mM stock), stored at −20° C.
384-well flat bottom plates—Corning #3575.
Compound dilution—All compounds were provided at 10 mM in 100% DMSO. In the first well, 2 μL of 10 mM compound was added to 78 μL of DMSO (1:40 dilution). In subsequent wells 3-fold dilution (total 10 dilutions) were performed.
1×ATX assay buffer was made up with a final concentration of 1 mg/mL fatty acid free-BSA using 2×ATX assay buffer, 10 mg/ml fatty acid free-BSA and ddH2O.
[…]. The final concentration of ATX in the reaction as 1.0 μg/mL.
2 μL per well of compounds was transferred to provide the desired concentration. The plate was centrifuged, then incubated at room temperature for 30 minutes on the shaker.
FS-3 was diluted with 1×ATX assay buffer to a concentration of FS-3 of 10 μM (5×). Then, 10 μL was added per well to the assay plate. The final concentration of FS-3 in the reaction was 2 μM. The plate was centrifuged. The plate was kept shaking at room temperature for 2 hours. Because FS-3 substrate is light sensitive, plates were kept covered and protected from light.
Fluorescence was measured using SpectraMax M5 (excitation at 485 nm/emission at 538 nm, top read).
Consider `O=C(CC1CCN2CCCC2C1)N1CCc2c(C(F)(F)F)nn(Cc3ccc(F)cc3)c2C1` (stereo not shown) [Example 1-34, 1-(1-(4-Fluorobenzyl)-3-(trifluoromethyl)-4,5-dihydro-1H-pyrazolo[3,4-c]pyridin-6(7H)-yl)-2-(octahydroindolizin-7-yl)ethanone TFA salt], for which the pIC50 was at least 7.00.
The same measure, in the same setting: in the case of `O=C(C1CN2CCC1CC2)N1CCc2c(C(F)(F)F)nn(Cc3ccc(F)cc3)c2C1` (stereo not shown) [Example 1-35, (1-(4-Fluorobenzyl)-3-(trifluoromethyl)-4,5-dihydro-1H-pyrazolo[3,4-c]pyridin-6(7H)-yl)(quinuclidin-3-yl)methanone TFA salt] it was 6.60 to 7.00; in that of `O=C(N1CCc2c(C(F)(F)F)nn(Cc3ccc(F)cc3)c2C1)C12CCN(CC1)CC2` [Example 1-36, (1-(4-Fluorobenzyl)-3-(trifluoromethyl)-4,5-dihydro-1H-pyrazolo[3,4-c]pyridin-6(7H)-yl)(quinuclidin-4-yl)methanone TFA salt], 6.30 to 6.60; in that of `CCOC(=O)[C@H]1CC[C@H](CC(=O)N2CCc3c(C(F)F)nn(Cc4ccc(F)cc4)c3C2)CC1` [Example 1-38, trans-Ethyl 4-(2-(3-(difluoromethyl)-1-(4-fluorobenzyl)-4,5-dihydro-1H-pyrazolo[3,4-c]pyridin-6(7H)-yl)-2-oxoethyl)cyclohexanecarboxylate], at least 7.00.
Turning to `CCOC(=O)[C@H]1CC[C@H](CC(=O)N2CCc3c(C4CC4)nn(Cc4ccc(F)cc4)c3C2)CC1` [Example 1-39, trans-Ethyl 4-(2-(3-cyclopropyl-1-(4-fluorobenzyl)-4,5-dihydro-1H-pyrazolo[3,4-c]pyridin-6(7H)-yl)-2-oxoethyl)cyclohexanecarboxylate], the pIC50 was at least 7.00.
In the case of `CCOC(=O)c1nn(Cc2ccc(F)cc2)c2c1CCN(C(=O)C[C@H]1CC[C@H](C(=O)OCC)CC1)C2` [Example 1-40, Ethyl 6-(2-(trans-4-(ethoxycarbonyl)cyclohexyl)acetyl)-1-(4-fluorobenzyl)-4,5,6,7-tetrahydro-1H-pyrazolo[3,4-c]pyridine-3-carboxylate], the pIC50 was < 6.30 and ≥ 5.00.
The same measure, in the same setting: in the case of `CCOC(=O)[C@H]1CC[C@H](CC(=O)N2CCc3c(CO)nn(Cc4ccc(F)cc4)c3C2)CC1` [Example 1-41, trans-Ethyl-4-(2-(1-(4-fluorobenzyl)-3-(hydroxymethyl)-4,5-dihydro-1H-pyrazolo[3,4-c]pyridin-6(7H)-yl)-2-oxoethyl)cyclohexanecarboxylate] it was 6.30 to 6.60; in that of `CCOC(=O)[C@H]1CC[C@H](CC(=O)N2CCc3c(C(N)=O)nn(Cc4ccc(F)cc4)c3C2)CC1` [Example 1-42, trans-Ethyl 4-(2-(3-carbamoyl-1-(4-fluorobenzyl)-4,5-dihydro-1H-pyrazolo[3,4-c]pyridin-6(7H)-yl)-2-oxoethyl)cyclohexanecarboxylate], < 6.30 and ≥ 5.00.
The same measure, in the same setting: in the case of `CCOC(=O)[C@H]1CC[C@H](CC(=O)N2CCc3c(C#N)nn(Cc4ccc(F)cc4)c3C2)CC1` [Example 1-43, trans-Ethyl 4-(2-(3-cyano-1-(4-fluorobenzyl)-4,5-dihydro-1H-pyrazolo[3,4-c]pyridin-6(7H)-yl)-2-oxoethyl)cyclohexanecarboxylate] it was at least 7.00; in that of `CCOC(=O)[C@H]1CC[C@H](CC(=O)N2CCc3c(-c4ccccc4)nn(Cc4ccc(F)cc4)c3C2)CC1` [Example 1-44, trans-Ethyl 4-(2-(1-(4-fluorobenzyl)-3-phenyl-4,5-dihydro-1H-pyrazolo[3,4-c]pyridin-6(7H)-yl)-2-oxoethyl)cyclohexanecarboxylate], at least 7.00.
On the same count and under the same terms, to `CCOC(=O)[C@H]1CC[C@H](CC(=O)N2CCc3c(C(F)(F)F)nn(Cc4ccsc4)c3C2)CC1` [Example 1-45, trans-Ethyl-4-(2-oxo-2-(1-(thiophen-3-ylmethyl)-3-(trifluoromethyl)-4,5-dihydro-1H-pyrazolo[3,4-c]pyridin-6(7H)-yl)ethyl)cyclohexanecarboxylate] belongs at least 7.00.
For `CCOC(=O)[C@H]1CC[C@H](CC(=O)N2CCc3c(C(F)(F)F)nn(Cc4cccs4)c3C2)CC1` [Example 1-46, trans-Ethyl-4-(2-oxo-2-(1-(thiophen-2-ylmethyl)-3-(trifluoromethyl)-4,5-dihydro-1H-pyrazolo[3,4-c]pyridin-6(7H)-yl)ethyl)cyclohexanecarboxylate], the negative-log IC50 (pIC50) is at least 7.00.
On the same count and under the same terms, to `CCOC(=O)[C@H]1CC[C@H](CC(=O)N2CCc3c(C(F)(F)F)nn(Cc4cncs4)c3C2)CC1` [Example 1-47, trans-Ethyl 4-(2-oxo-2-(1-(thiazol-5-ylmethyl)-3-(trifluoromethyl)-4,5-dihydro-1H-pyrazolo[3,4-c]pyridin-6(7H)-yl)ethyl)cyclohexanecarboxylate] belongs at least 7.00; to `CCOC(=O)[C@H]1CC[C@H](CC(=O)N2CCc3c(C(F)(F)F)nn(CC4CCC(C)CC4)c3C2)CC1` (stereo partly drawn) [Example 1-48, trans-Ethyl 4-(2-(1-((4-methylcyclohexyl)methyl)-3-(trifluoromethyl)-4,5-dihydro-1H-pyrazolo[3,4-c]pyridin-6(7H)-yl)-2-oxoethyl) cyclohexanecarboxylate], at least 7.00.
On the same count and under the same terms, to `CCOC(=O)[C@H]1CC[C@H](CC(=O)N2CCc3c(C(F)(F)F)nn(Cc4ccc(F)cc4F)c3C2)CC1` [Example 1-50, trans-Ethyl 4-(2-(1-(2,4-difluorobenzyl)-3-(trifluoromethyl)-4,5-dihydro-1H-pyrazolo[3,4-c]pyridin-6(7H)-yl)-2-oxoethyl)cyclohexanecarboxylate] belongs at least 7.00.
The same measure, in the same setting: to `CCOC(=O)[C@H]1CC[C@H](CC(=O)N2CCc3c(C(F)(F)F)nn(Cc4ccc(Cl)cc4F)c3C2)CC1` [Example 2-1, trans-Ethyl 4-(2-(1-(4-chloro-2-fluorobenzyl)-3-(trifluoromethyl)-4,5-dihydro-1H-pyrazolo[3,4-c]pyridin-6(7H)-yl)-2-oxoethyl)cyclohexanecarboxylate] belongs at least 7.00.
For `CCOC(=O)[C@H]1CC[C@@H](CC(=O)N2CCc3c(C(F)(F)F)nn(Cc4ccc(Cl)cc4F)c3C2)CC1` [Example 2-2, cis-Ethyl 4-(2-(1-(4-chloro-2-fluorobenzyl)-3-(trifluoromethyl)-4,5-dihydro-1H-pyrazolo[3,4-c]pyridin-6(7H)-yl)-2-oxoethyl)cyclohexanecarboxylate], the pIC50 was at least 7.00.
Same read-out and setting: in the case of `CCOC(=O)[C@H]1CC[C@H](CC(=O)N2CCc3c(C(F)(F)F)nn(Cc4cc(F)cc(Cl)c4)c3C2)CC1` [Example 2-3, trans-Ethyl 4-(2-(1-(3-chloro-5-fluorobenzyl)-3-(trifluoromethyl)-4,5-dihydro-1H-pyrazolo[3,4-c]pyridin-6(7H)-yl)-2-oxoethyl)cyclohexanecarboxylate] it was at least 7.00; in that of `CCOC(=O)[C@H]1CC[C@@H](CC(=O)N2CCc3c(C(F)(F)F)nn(Cc4cc(F)cc(Cl)c4)c3C2)CC1` [Example 2-4, cis-ethyl 4-(2-(1-(3-chloro-5-fluorobenzyl)-3-(trifluoromethyl)-4,5-dihydro-1H-pyrazolo[3,4-c]pyridin-6(7H)-yl)-2-oxoethyl)cyclohexanecarboxylate], at least 7.00.
On the same count and under the same terms, in the case of `COC(=O)[C@H]1CC[C@@H](NC(=O)N2CCc3c(C(F)(F)F)nn(Cc4ccc(Cl)cc4F)c3C2)CC1` [Example 3-1, cis-Methyl 4-(1-(4-chloro-2-fluorobenzyl)-3-(trifluoromethyl)-4,5,6,7-tetrahydro-1H-pyrazolo[3,4-c]pyridine-6-carboxamido)cyclohexanecarboxylate] it was at least 7.00; in that of `COC(=O)[C@H]1CC[C@H](NC(=O)N2CCc3c(C(F)(F)F)nn(Cc4ccc(Cl)cc4F)c3C2)CC1` [Example 3-2, trans-Methyl 4-(1-(4-chloro-2-fluorobenzyl)-3-(trifluoromethyl)-4,5,6,7-tetrahydro-1H-pyrazolo[3,4-c]pyridine-6-carboxamido)cyclohexanecarboxylate], 6.60 to 7.00.

The same assay, now with this note: IC50, FRET assay, FS-3 2 μM, ATX 1.0 μg/mL, 30 minutes preincubation, 2 hours reaction at room temperature.
In turn, `O=C(CC1CN2CCC1CC2)N1CCc2c(C(F)(F)F)nn(Cc3ccc(F)cc3)c2C1` (stereo not shown) [Example 1-37, 1-(1-(4-Fluorobenzyl)-3-(trifluoromethyl)-4,5-dihydro-1H-pyrazolo[3,4-c]pyridin-6(7H)-yl)-2-(quinuclidin-3-yl)ethanone TFA salt] showed a pIC50 of at least 7.00.
